Laboratory results as given in publication PMC12522106 (Cancer Research Communications, 2025).
Read-outs that look alike come from different tables or passages of the source.

Legend:
[1] = tested on: subcutaneous xenograft models of osteosarcoma cell lines; conditions: cited from earlier work
[2] = tested on: sarcospheres from human patients with osteosarcoma; assay: Resazurin metabolic activity of human patient-derived sarcospheres; format: cell-based; conditions: for ED50: 48 hours, metabolic activity
Text: (§1) Osteosarcoma tissue was obtained during standard-of-care procedures (biopsies or resections) in human patients treated at Indiana University Health and Riley Children’s Hospital with Institutional Review Board approval (#1501467439). Tissue from canine patients with osteosarcoma was obtained from standard-of-care amputations at the Purdue University College of Veterinary Medicine and the Metropolitan Veterinary Hospital. Osteosarcoma diagnosis was confirmed by review of pathology reports. Demographic and clinical information for human and canine patients is in Table 1. Primary osteosarcoma cells were isolated by collagenase/mechanical dispersion using a modification of a previously described protocol ([35]). […] The tissue was rinsed with cold PBS (Cytiva, cat. #SH30028.02) and minced prior to incubation in 10 mL of culture media containing collagenase type II (750 units/mL with 13–18 units of clostripain/mL, Worthington, cat. #LS004176) for 3 hours at 37°C and 5% CO2. The media and tissue fragments were centrifuged at 200 g for 5 minutes. Pellets with a visible layer of red blood cells were then treated with 5 mL of ACK Lysing Buffer (Gibco, cat. #A10492-01) for 1 minute and then centrifuged at 200 g for 2 minutes. Pellets were resuspended in culture media, pipetted up and down 15 times to disperse tissue fragments, and centrifuged at 200 g for 5 minutes. Finally, any remaining tissue fragments were crushed with a 25-mL pipette and transferred with released cells and culture media to a 100-mm tissue culture dish and incubated at 37°C and 5% CO2. Media were changed every 3 days. When a confluence of ∼80% was reached, the cells were passaged to 150-mm dishes at 5,000 cells/cm^2. Aliquots of the patient-derived osteosarcoma cells were frozen in 10% DMSO (Sigma-Aldrich, D2650), 40% FBS (Cytiva, SH30071.03), and 50% culture media at second passage and stored in liquid nitrogen. The TT2-77 xenoline is a patient cell line that was isolated from a patient-derived xenograft (PDX) that was previously developed and characterized by the Pollok lab ([5]).
(§2) The number of patient-derived cells required to obtain sarcospheres with 400-μm diameters was determined for each patient and varied from 1,000 to 15,000 cells per sarcosphere.
(§3) Round-bottom 96-well plates were coated with 50 μL/well of 0.5% poly 2-hydroxyethyl methacrylate (Polysciences Inc., cat. #09689-25) in 100% ethanol and incubated at 37°C for 3 days before use to obtain a nonadherent surface. […] Highly metastatic osteosarcoma cells cultured in monolayers at 50% to 80% confluence were lifted with Accutase (Innovative Cell Technologies, Inc., cat. #NC9839010), resuspended in media, and diluted to the desired concentration.

LM7 sarcospheres [3] = assay: Sarcosphere size (Incucyte); format: cell-based, human; conditions: 48-hour period
[4] = cited from earlier work
[5] = humans, cited from earlier work
[6] = tested on: patient-derived sarcospheres; assay: Sarcosphere size (Incucyte); format: cell-based, human, canine; conditions: 48-hour observation period; sensitive and resistant samples
Description: as §2

143B sarcospheres [7] = assay: Sarcosphere size (Incucyte); format: cell-based, human; conditions: initial 48-hour observation period
[8] = tested on: monolayers of either established osteosarcoma cell lines or PDX cell lines; set-up: method as in PMID 30395907, PMID 26601688, PMID 37457661, PMID 35411591; conditions: cited from earlier work
LM7 sarcospheres [9] = assay: Transient romidepsin treatment, recovery of metabolic activity; format: cell-based, human; conditions: 10–100 nmol/L; followed to day 14
Description: (§4) Sarcosphere losses were minimized by removing the media stepwise (25 μL/step, 10 μL/second) and by centering the sarcospheres in the middle of each well by centrifugation (1,000 g for 6 minutes) before each media exchange cycle. After each assay of metabolic activity, resazurin was removed by three cycles of media exchange and the media were changed on days 10 and 12 by one cycle.

143B sarcospheres [10] = assay: as above; format: cell-based, human; conditions: followed to day 14
Description: as §4

[11] = tested on: sarcospheres from canine patients with osteosarcoma; assay: Resazurin metabolic activity of canine patient-derived sarcospheres; format: cell-based; conditions: for ED50: 48 hours, metabolic activity
Text: as §1, §2, §3

## C/C=C1\NC(=O)[C@H]2CSSCC/C=C/[C@H](CC(=O)N[C@H](C(C)C)C(=O)N2)OC(=O)[C@H](C(C)C)NC1=O [romidepsin]
[1]; mice followed for 1 week after discontinuation
  tumor response: tumors regressed
[1]; mice followed for 6 weeks after discontinuation
  response after discontinuation: did not induce a sustained response
[1]; small number of mice
  growth of well-established subcutaneous xenografts: inhibited growth
[2]; ED50s <70 nmol/L
  share of human patient samples whose sarcospheres responded: ~30%
[2]; TT2-77 Xenoline (romidepsin sensitive)
  ED50: 10 nmol/L
[2]; one patient
  ED50 of the notably more sensitive patient: 1 nM
[2]; patient sample IUhOS002LR (romidepsin resistant)
  ED50: >1,000 nmol/L
[2]; patient sample IUhOS005B (romidepsin resistant)
  ED50: >1,000 nmol/L
[2]; patient sample IUhOS006B (romidepsin sensitive)
  ED50: 6 nmol/L
[2]; patient sample IUhOS013B (romidepsin resistant)
  ED50: >1,000 nmol/L
[2]; patient sample IUhOS018B (romidepsin sensitive)
  ED50: 1 nmol/L
[2]; patient sample IUhOS020LR (romidepsin sensitive)
  ED50: 63 nmol/L
[2]; patient sample IUhOS021B (romidepsin resistant)
  ED50: >1,000 nmol/L
[2]; patient sample IUhOS027P (romidepsin resistant)
  ED50: >1,000 nmol/L
[2]; patient sample IUhOS029LR (romidepsin resistant)
  ED50: >1,000 nmol/L
[2]; patient sample IUhOS0410B (romidepsin resistant)
  ED50: >1,000 nmol/L
[2]; patient sample IUhOS0410P (romidepsin resistant)
  ED50: >1,000 nmol/L
[2]; patient sample IUhOS1516B (romidepsin sensitive)
  ED50: 10 nmol/L
[2]; patient sample IUhOS1516P (romidepsin resistant)
  ED50: >1,000 nmol/L
[2]; patient sample IUhOS1925B (romidepsin resistant)
  ED50: >1,000 nmol/L
[2]; patient sample IUhOS1925P (romidepsin resistant)
  ED50: >1,000 nmol/L
[2]; patient sample IUhOS2226B (romidepsin resistant)
  ED50: >1,000 nmol/L
[2]; patient sample IUhOS2226P (romidepsin resistant)
  ED50: >1,000 nmol/L
LM7 sarcospheres [3]
  effect on sarcosphere size: did not alter size
[4]
  most common severe adverse events: thrombocytopenia and neutropenia
  most common side effect: Nausea
  severe toxicities: few severe toxicities
[4]; reported in humans, rats, and beagle dogs
  most concerning potential side effect: cardiac toxicity
[5]
  Cmax: ~700 nM
[5]; listed as Romidepsin
  Cmax: 700 nM
[6]
  effect on sarcosphere size: did not change in size
143B sarcospheres [7]
  effect on sarcosphere size: inhibited the increase in size
[8]
  standing in four independent screens: among the top hits
LM7 sarcospheres [9]
  recovery of metabolic activity after a 24-hour exposure: sustained effect for 14 days
143B sarcospheres [10]
  recovery of metabolic activity after a 24-hour exposure: rapidly recovered
[11]; ED50s <70 nmol/L
  share of canine patient samples whose sarcospheres responded: 50%
[11]; canine patient sample MVHcOS001 (romidepsin resistant)
  ED50: >1,000 nmol/L
[11]; canine patient sample MVHcOS002 (romidepsin resistant)
  ED50: >1,000 nmol/L
[11]; canine patient sample MVHcOS003 (romidepsin sensitive)
  ED50: 22 nmol/L
[11]; canine patient sample MVHcOS004 (romidepsin sensitive)
  ED50: 6 nmol/L
[11]; canine patient sample MVHcOS005 (romidepsin resistant)
  ED50: >1,000 nmol/L
[11]; canine patient sample MVHcOS006 (romidepsin resistant)
  ED50: >1,000 nmol/L
[11]; canine patient sample PUcOS001 (romidepsin sensitive)
  ED50: 65 nmol/L
[11]; canine patient sample PUcOS002 (romidepsin sensitive)
  ED50: 46 nmol/L
[11]; canine patient sample PUcOS003 (romidepsin resistant)
  ED50: >1,000 nmol/L
[11]; canine patient sample PUcOS004 (romidepsin sensitive)
  ED50: 57 nmol/L
